{"source": "patent US5466671A", "about": "“Apidaecin-type peptide antibiotics with improved activities and/or different antibacterial spectrum” (priority 1994, dated 1995)", "key": {"N. meningiditis": {"system": "N. meningiditis", "assay_type": "cell-based", "settings": "cecropin P1, 5 nanomoles/well"}, "Escherichia coli (K514)": {"system": "Escherichia coli (K514)", "assay_type": "cell-based", "settings": "agar plate, cecropin P1 5 nanomoles/well (column head: 500p), 3 mm wells"}, "A. calcoaceticus": {"system": "A. calcoaceticus", "assay": "Minimal inhibitory concentration (liquid culture)", "settings": "inoculum 16 × 10^6 CFU/ml; a-b = highest concentration with growth - lowest without growth"}, "Salmonella typhi": {"system": "Salmonella typhi", "assay_type": "cell-based", "settings": "agar plate, cecropin P1 5 nanomoles/well (column head: 500p), 3 mm wells"}, "Gardnerella vaginalis": {"system": "Gardnerella vaginalis", "assay_type": "cell-based", "settings": "cecropin P1, 5 nanomoles/well"}, "Campylobacter jejuni": {"system": "Campylobacter jejuni", "assay": "Inhibition zone assay (agar plate)", "assay_type": "cell-based", "settings": "cecropin P1 5 nanomoles/well (column head: 500p), 3 mm wells"}, "[1]": {"system": "bacterial strains used in this study", "assay": "Minimal inhibitory concentration, inoculum effect", "assay_type": "cell-based", "settings": "any of the bacterial strains used"}, "Yersinia enterocolitica": {"system": "Yersinia enterocolitica", "assay": "Inhibition zone assay (agar plate)", "assay_type": "cell-based", "settings": "cecropin P1 5 nanomoles/well (column head: 500p), 3 mm wells"}, "S. typhimurium": {"system": "S. typhimurium", "assay": "Minimal inhibitory concentration (liquid culture)", "settings": "inoculum 8 × 10^6 CFU/ml; a-b = highest concentration with growth - lowest without growth"}, "Enterobacter cloacae": {"system": "Enterobacter cloacae", "assay": "Inhibition zone assay (agar plate)", "assay_type": "cell-based", "settings": "agar plate, cecropin P1 5 nanomoles/well (column head: 500p), 3 mm wells"}, "Salmonella typhimurium": {"system": "Salmonella typhimurium", "assay": "Inhibition zone assay (agar plate)", "assay_type": "cell-based", "settings": "agar plate, cecropin P1 5 nanomoles/well (column head: 500p), 3 mm wells"}, "Neisseria gonorrhoeae": {"system": "Neisseria gonorrhoeae", "assay_type": "cell-based", "settings": "cecropin P1, 5 nanomoles/well"}, "[2]": {"system": "Acinetobacter calcoaceticus", "assay": "Inhibition zone assay (agar plate)", "assay_type": "cell-based", "settings": "agar plate, cecropin P1 5 nanomoles/well (column head: 500p), 3 mm wells"}, "[3]": {"system": "Bacteriodes melaninogenicus", "assay_type": "cell-based", "settings": "cecropin P1, 5 nanomoles/well"}, "Helicobacter pylori": {"system": "Helicobacter pylori", "assay_type": "cell-based", "settings": "cecropin P1, 5 nanomoles/well"}, "M. morganii": {"system": "M. morganii", "assay": "Minimal inhibitory concentration (liquid culture)", "settings": "inoculum 400 CFU/ml; a-b = highest concentration with growth - lowest without growth"}, "Haemophilus influenzae": {"system": "Haemophilus influenzae", "assay": "Inhibition zone assay (agar plate)", "assay_type": "cell-based", "settings": "cecropin P1 5 nanomoles/well (column head: 500p), 3 mm wells"}, "Haemophilus ducreyi": {"system": "Haemophilus ducreyi", "assay_type": "cell-based", "settings": "cecropin P1, 5 nanomoles/well"}, "[4]": {"system": "Agrobacterium tumefaciens", "assay": "Inhibition zone assay (agar plate)", "assay_type": "cell-based", "settings": "agar plate, cecropin P1 5 nanomoles/well (column head: 500p), 3 mm wells"}, "E. coli 11775": {"system": "E. coli 11775", "assay": "Minimal inhibitory concentration (liquid culture)", "settings": "a-b = highest concentration with growth - lowest without growth"}, "E. coli 25922": {"system": "E. coli 25922", "assay": "Minimal inhibitory concentration (liquid culture)", "settings": "inoculum 1100 CFU/ml; a-b = highest concentration with growth - lowest without growth"}, "Klebsiella pneumoniae": {"system": "Klebsiella pneumoniae", "assay": "Inhibition zone assay (agar plate)", "assay_type": "cell-based", "settings": "agar plate, cecropin P1 5 nanomoles/well (column head: 500p), 3 mm wells"}, "Shigella dysenteriae": {"system": "Shigella dysenteriae", "assay_type": "cell-based", "settings": "agar plate, cecropin P1 5 nanomoles/well (column head: 500p), 3 mm wells"}, "Xanthomonas maltophilia": {"system": "Xanthomonas maltophilia", "assay_type": "cell-based", "settings": "cecropin P1, 5 nanomoles/well"}, "Proteus mirabilis": {"system": "Proteus mirabilis", "assay_type": "cell-based", "settings": "cecropin P1, 5 nanomoles/well"}, "Legionella pneumophila": {"system": "Legionella pneumophila", "assay_type": "cell-based"}, "[5]": {"system": "E. coli strain 11775Apid^R", "settings": "11775Apid^R vs ATCC 11775; cited from earlier work"}, "E. coli Apid^R": {"system": "E. coli Apid^R", "assay": "Minimal inhibitory concentration (liquid culture)", "assay_type": "cell-based", "settings": "a-b = highest concentration with growth - lowest without growth", "from_the_text": "For details see `Experimental Procedures`."}, "Y. enterocolitica": {"system": "Y. enterocolitica", "assay": "Minimal inhibitory concentration (liquid culture)", "settings": "inoculum 5000 CFU/ml; a-b = highest concentration with growth - lowest without growth"}, "Rhizobium meliloti": {"system": "Rhizobium meliloti", "assay": "Inhibition zone assay (agar plate)", "assay_type": "cell-based", "settings": "cecropin P1 5 nanomoles/well (column head: 500p), 3 mm wells"}, "E. coli 23802": {"system": "E. coli 23802", "assay": "Minimal inhibitory concentration (liquid culture)", "settings": "inoculum 5000 CFU/ml; a-b = highest concentration with growth - lowest without growth"}}, "note": "Residues, ends and D or L forms follow the SMILES beside them.", "data": [{"smiles": "CC[C@H](C)[C@H](NC(=O)CNC(=O)[C@H](CCC(=O)O)NC(=O)[C@H](CO)NC(=O)[C@@H](NC(=O)[C@H](CCCNC(=N)N)NC(=O)[C@H](CCCCN)NC(=O)[C@H](CCCCN)NC(=O)[C@H](C)NC(=O)[C@H](CO)NC(=O)[C@H](CC(N)=O)NC(=O)[C@H](CCC(=O)O)NC(=O)[C@H](CC(C)C)NC(=O)[C@H](CCCCN)NC(=O)[C@H](CCCCN)NC(=O)[C@H](C)NC(=O)[C@@H](NC(=O)[C@H](CCCCN)NC(=O)[C@H](CO)NC(=O)[C@H](CC(C)C)NC(=O)[C@H](Cc1c[nH]c2ccccc12)NC(=O)[C@@H](N)CO)[C@@H](C)O)[C@@H](C)CC)C(=O)N[C@@H](C)C(=O)N[C@H](C(=O)N[C@@H](C)C(=O)N[C@H](C(=O)N[C@@H](CCC(N)=O)C(=O)NCC(=O)NCC(=O)N1CCC[C@H]1C(=O)N[C@@H](CCCNC(=N)N)C(=O)O)[C@@H](C)CC)[C@@H](C)CC", "note": "[CP-1, cecropin P1, reference compound] (H-SWLSKTAKKLENSAKKRISEGIAIAIQGGPR-OH)", "values": [{"measurement": "measurable activity on agar plate", "setting": "N. meningiditis", "value": "not"}, {"measurement": "inhibition zone diameter (number of plus signs)", "setting": "Escherichia coli (K514)", "value": "+ ((+) 5-6 mm)"}, {"measurement": "minimal inhibitory concentration (MIC)", "setting": "A. calcoaceticus", "value": "2 to 10", "unit": "µg/mL"}, {"measurement": "inhibition zone diameter (number of plus signs)", "setting": "Salmonella typhi", "value": "+++++ ((+++++) 20 or more min)"}, {"measurement": "measurable activity on agar plate", "setting": "Gardnerella vaginalis", "value": "not"}, {"measurement": "inhibition zone diameter (number of plus signs)", "setting": "Campylobacter jejuni", "value": "+++ ((+++) 10-14 mm)"}, {"measurement": "inoculum effect", "setting": "[1]", "value": "No inoculum effect"}, {"measurement": "inhibition zone diameter (number of plus signs)", "setting": "Yersinia enterocolitica", "value": "+++++ ((+++++) 20 or more min)"}, {"measurement": "minimal inhibitory concentration (MIC)", "setting": "S. typhimurium", "value": "1 to 2", "unit": "µg/mL"}, {"measurement": "inhibition zone diameter (number of plus signs)", "setting": "Enterobacter cloacae", "value": "++++ ((++++) 15-19 mm)"}, {"measurement": "inhibition zone diameter (number of plus signs)", "setting": "Salmonella typhimurium", "value": "++ ((++) 7-9 mm)"}, {"measurement": "measurable activity on agar plate", "setting": "Neisseria gonorrhoeae", "value": "not"}, {"measurement": "inhibition zone diameter (number of plus signs)", "setting": "[2]", "value": "++ ((++) 7-9 mm)"}, {"measurement": "measurable activity on agar plate", "setting": "[3]", "value": "measurable activity"}, {"measurement": "measurable activity on agar plate", "setting": "Helicobacter pylori", "value": "not"}, {"measurement": "minimal inhibitory concentration (MIC)", "setting": "M. morganii", "value": "0.2 to 1", "unit": "µg/mL"}, {"measurement": "inhibition zone diameter (number of plus signs)", "setting": "Haemophilus influenzae", "value": "++++ ((++++) 15-19 mm)"}, {"measurement": "measurable activity on agar plate", "setting": "Haemophilus ducreyi", "value": "measurable activity"}, {"measurement": "inhibition zone diameter (number of plus signs)", "setting": "[4]", "value": "++++ ((++++) 15-19 mm)"}, {"measurement": "minimal inhibitory concentration (MIC)", "setting": "E. coli 11775; inoculum 16 × 10^6 CFU/ml", "value": "0.2 to 1", "unit": "µg/mL"}, {"measurement": "minimal inhibitory concentration (MIC)", "setting": "E. coli 11775; inoculum 1200 CFU/ml", "value": "0.2 to 1", "unit": "µg/mL"}, {"measurement": "minimal inhibitory concentration (MIC)", "setting": "E. coli 25922", "value": "0.2 to 1", "unit": "µg/mL"}, {"measurement": "inhibition zone diameter (number of plus signs)", "setting": "Klebsiella pneumoniae", "value": "+ ((+) 5-6 mm)"}, {"measurement": "inhibition zone diameter (number of plus signs)", "setting": "Shigella dysenteriae", "value": "++++ ((++++) 15-19 mm)"}, {"measurement": "measurable activity on agar plate", "setting": "Xanthomonas maltophilia", "value": "measurable activity"}, {"measurement": "measurable activity on agar plate", "setting": "Proteus mirabilis", "value": "not"}, {"measurement": "inhibition zone diameter (number of plus signs)", "setting": "Legionella pneumophila", "value": "+++++ (key: (+) 5-6 mm; (++) 7-9 mm; (+++) 10-14 mm; (++++) 15-19 mm; (+++++) 20 or more min; (-) denotes that no inhibition was observed)"}, {"measurement": "susceptibility of mutant compared to parental strain", "setting": "[5]", "value": "equally susceptible"}, {"measurement": "minimal inhibitory concentration (MIC)", "setting": "E. coli Apid^R; inoculum 12 × 10^6 CFU/ml", "value": "0.2 to 1", "unit": "µg/mL"}, {"measurement": "minimal inhibitory concentration (MIC)", "setting": "E. coli Apid^R; inoculum 1000 CFU/ml", "value": "0.2 to 1", "unit": "µg/mL"}, {"measurement": "minimal inhibitory concentration (MIC)", "setting": "Y. enterocolitica", "value": "0.2 to 1", "unit": "µg/mL"}, {"measurement": "inhibition zone diameter (number of plus signs)", "setting": "Rhizobium meliloti", "value": "+ ((+) 5-6 mm)"}, {"measurement": "minimal inhibitory concentration (MIC)", "setting": "E. coli 23802", "value": "0.2 to 1", "unit": "µg/mL"}]}]}
